Results as given in PubChem BioAssay AID2060487 (Molecular Pharmacology Branch, DTP, NCI, 2025).

System: 997537-175-T-J1-PDC complex spheroid viability
Experiment: Anticancer human tumor 997537-175-T-J1-PDC patient-derived colon adenocarcinoma cell line growth inhibition [GQUAD]
Details: for IC50: curve of first compound; for viability, T/C: stronger effect = lower value
Text: DNA G-quadruplex Stabilizer Agents in Combinations in Complex Spheroids
A high-throughput screen of multi-cell type tumor spheroids was designed to identify active combinations of DNA G-quadruplex stabilizer agents and targeted small molecules. Complex spheroids include a stromal component modeled by human endothelial cells (HUVEC) and fibroblasts modeled by human mesenchymal stem cells (MSCs). The concentration ranges selected for each drug and investigational agent were based upon clinically achievable concentrations if the clinical Cmax of the agent was known.
Compounds. The drugs and investigational agents: pidnarulex (CX-5461; NSC782164), APTO-253 (NSC789042), BRACO-19 (NSC847499), peposertib (NSC802822), ceralasertib (NSC780249), elimusertib (NSC800525), camonsertib (NSC841442), AZD-1390 (NSC803789), olaparib (NSC753686), talazoparib (NSC767125), ART-558 (NSC835418), sotorasib (NSC818433), MRTX-1133 (NSC836407), SN-38 (NSC673596), topotecan (NSC609699), etoposide (NSC141540), doxorubicin (NSC123127), gemcitabine (NSC613327), 5-fluorouracil (NSC19893), paclitaxel (NSC125973), vemurafenib (NSC761431), panobinostat (NSC761190), R-306465 (JNJ-16241199; NSC773264), adavosertib (NSC754352), TP-3654 (NSC805149), carboplatin (NSC241240), KSQ-4279 (NSC840948), and staurosporine (NSC755774) were obtained from the National Cancer Institute (NCI) Developmental Therapeutics Program Chemical Repository (34). The FDA-approved anticancer drug set is available from the NCI Developmental Therapeutics Program. […] The stock solutions were prepared in dimethyl sulfoxide (DMSO, Sigma-Aldrich, St. Louis, MO, cat. D2650) at 800-fold the tested concentration and stored at -70 degrees C prior to their use. All drugs and investigational agents were tested over a range starting from a high concentration at or near the clinical Cmax and decreasing in half-log increments. If the clinical Cmax for an agent had not been determined, the highest concentration tested was 10 microM.
2.3 Cell Culture. All cells were maintained in an incubator at 37 degrees C and 5% CO2 with 95% humidity. The PDC lines were cultured according to standard operating procedures established by the NCI PDMR. All PDCs were thawed and cultured in Matrigel-coated flasks prepared with a working solution of 1X Ham's F-12 nutrient mix, without supplementation (Invitrogen, cat. 11765054), 100 U/mL penicillin-streptomycin (Invitrogen, cat. 15140122), and 2.5% Matrigel (Corning Inc., cat. 354248) for the first three passages. The 857933-349-R-J2-PDC line was cultured in 6C/Colon 1B media, which includes advanced DMEM/F-12 (Thermo Fisher Scientific, cat. 12634028), 10 mM HEPES (Thermo Fisher Scientific, cat. 15630080), 1X GlutaMAX supplement (Thermo Fisher Scientific, cat. 35050061), 0.1 mg/mL primocin (InvivoGen, cat. ant-pm-2), 10% defined fetal bovine serum, heat inactivated (HyClone Laboratories Inc., cat. SH30070.03HI), 50% L-WRN conditioned media (ATCC, cat. CRL-3276), 1.25 mM N-Acetyl-L-cysteine (Sigma-Aldrich, cat. A9165), 10 mM nicotinamide (Sigma-Aldrich, cat. N0636), 1X B-27 supplement (Thermo Fisher Scientific, cat. 17504044), 1X N-2 supplement (Thermo Fisher Scientific, cat. 17502048), 10 microM Y-27632 dihydrochloride (Tocris Bioscience, cat. 1254), and 50 ng/mL human EGF recombinant protein (Thermo Fisher Scientific, cat. PHG0311). The 485176-168-R4-J1-PDC line was cultured in Panc media, which includes all 6C/Colon 1B media components plus 100 ng/mL human FGF-10 (Thermo Fisher Scientific, cat. 100-26), 500 nM SB-431542 (Selleckchem, cat. S1067), and gastrin (Tocris, cat. 3006).
[…]

[1] = second compound 0.0316 µM, first compound 0.0316 µM
[2] = second compound 0.0316 µM, first compound 0.1 µM
[3] = second compound 0.0316 µM, first compound 0.316 µM
[4] = second compound 0.0316 µM, first compound 1 µM
[5] = second compound 0.0316 µM, first compound 3.16 µM
[6] = second compound 0.0316 µM, first compound 10 µM
[7] = second compound 0.1 µM, first compound 0.0316 µM
[8] = second compound 0.1 µM, first compound 0.1 µM
[9] = second compound 0.1 µM, first compound 0.316 µM
[10] = second compound 0.1 µM, first compound 1 µM
[11] = second compound 0.1 µM, first compound 3.16 µM
[12] = second compound 0.1 µM, first compound 10 µM
[13] = second compound 0.316 µM, first compound 0.0316 µM
[14] = second compound 0.316 µM, first compound 0.1 µM
[15] = second compound 0.316 µM, first compound 0.316 µM
[16] = second compound 0.316 µM, first compound 1 µM
[17] = second compound 0.316 µM, first compound 3.16 µM
[18] = second compound 0.316 µM, first compound 10 µM
[19] = second compound 1 µM, first compound 0.0316 µM
[20] = second compound 1 µM, first compound 0.1 µM
[21] = second compound 1 µM, first compound 0.316 µM
[22] = second compound 1 µM, first compound 1 µM
[23] = second compound 1 µM, first compound 3.16 µM
[24] = second compound 1 µM, first compound 10 µM
[25] = second compound 3.16 µM, first compound 0.0316 µM
[26] = second compound 3.16 µM, first compound 0.1 µM
[27] = second compound 3.16 µM, first compound 0.316 µM
[28] = second compound 3.16 µM, first compound 1 µM
[29] = second compound 3.16 µM, first compound 3.16 µM
[30] = second compound 3.16 µM, first compound 10 µM
[31] = second compound 10 µM, first compound 0.0316 µM
[32] = second compound 10 µM, first compound 0.1 µM
[33] = second compound 10 µM, first compound 0.316 µM
[34] = second compound 10 µM, first compound 1 µM
[35] = second compound 10 µM, first compound 3.16 µM
[36] = second compound 10 µM, first compound 10 µM
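Note: spheroids exposed to the agents for 7 days.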
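Throughout, for viability, T/C: 100% = DMSO vehicle control viability.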

For `COc1cc(C2c3cc4c(cc3C(OC3OC5COC(C)OC5C(O)C3O)C3COC(=O)C23)OCO4)cc(OC)c1O` (centres undefined) + Cc1cnc(CNC(=O)c2c(=O)c3ccc(N4CCCN(C)CC4)nc3n3c2sc2ccccc23)cn1, the IC50 (second compound 0.0316 µM) was > 10 µM, the IC50 (second compound 0.1 µM) was > 10 µM and the IC50 (second compound 0.316 µM) was 5.74 µM. The IC50 (second compound 1 µM) was > 10 µM, the IC50 (second compound 3.16 µM) was > 10 µM and the IC50 (second compound 10 µM) was > 10 µM. It also gave a viability, T/C [1] of 113%, a viability, T/C [2] of 97.7% and a viability, T/C [3] of 101%. It also gave a viability, T/C [4] of 60.2%, a viability, T/C [5] of 78.6% and a viability, T/C [6] of 53%. The viability, T/C [7] was 109%, the viability, T/C [8] was 96.5% and the viability, T/C [9] was 84.9%. It also gave a viability, T/C [10] of 71.3%, a viability, T/C [11] of 63.2% and a viability, T/C [12] of 76.7%. For the same molecule, the viability, T/C [13] was 78%, the viability, T/C [14] was 109% and the viability, T/C [15] was 104%. The viability, T/C [16] was 89.1%, the viability, T/C [17] was 60% and the viability, T/C [18] was 40.9%. It also gave a viability, T/C [19] of 88.1%, a viability, T/C [20] of 84.1% and a viability, T/C [21] of 97.3%. The viability, T/C [22] was 101%, the viability, T/C [23] was 75.3% and the viability, T/C [24] was 63.3%. It also gave a viability, T/C [25] of 62.1%, a viability, T/C [26] of 99.2% and a viability, T/C [27] of 104%. The viability, T/C [28] was 86.2%, the viability, T/C [29] was 76.4% and the viability, T/C [30] was 50.7%. It also gave a viability, T/C [31] of 71.4%, a viability, T/C [32] of 84.9% and a viability, T/C [33] of 106%. It also gave a viability, T/C [34] of 98.5%, a viability, T/C [35] of 88.6% and a viability, T/C [36] of 69.5%.
For `COc1ncnc(C2CC2)c1-c1ncc2cnn(Cc3ccc(-c4nc(C(F)(F)F)cn4C(C)C)cc3)c2n1` + Cc1cnc(CNC(=O)c2c(=O)c3ccc(N4CCCN(C)CC4)nc3n3c2sc2ccccc23)cn1, the IC50 (second compound 0.0316 µM) was > 10 µM, the IC50 (second compound 0.1 µM) was > 10 µM and the IC50 (second compound 0.316 µM) was > 10 µM. For the same molecule, the IC50 (second compound 1 µM) was > 10 µM, the IC50 (second compound 3.16 µM) was > 10 µM and the IC50 (second compound 10 µM) was > 10 µM. For the same molecule, the viability, T/C [1] was 118%, the viability, T/C [2] was 78.4% and the viability, T/C [3] was 102%. It also gave a viability, T/C [4] of 66.6%, a viability, T/C [5] of 55.3% and a viability, T/C [6] of 96.1%. It also gave a viability, T/C [7] of 95.3%, a viability, T/C [8] of 69% and a viability, T/C [9] of 88.5%. For the same molecule, the viability, T/C [10] was 92.5%, the viability, T/C [11] was 85% and the viability, T/C [12] was 94.5%. It also gave a viability, T/C [13] of 89.1%, a viability, T/C [14] of 86.2% and a viability, T/C [15] of 89.5%. It also gave a viability, T/C [16] of 88.5%, a viability, T/C [17] of 91.3% and a viability, T/C [18] of 92.7%. The viability, T/C [19] was 73.8%, the viability, T/C [20] was 85.1% and the viability, T/C [21] was 100%. It also gave a viability, T/C [22] of 101%, a viability, T/C [23] of 121% and a viability, T/C [24] of 97.5%. For the same molecule, the viability, T/C [25] was 56%, the viability, T/C [26] was 107% and the viability, T/C [27] was 104%. The viability, T/C [28] was 84.7%, the viability, T/C [29] was 106% and the viability, T/C [30] was 97.4%. The viability, T/C [31] was 75.3%, the viability, T/C [32] was 109% and the viability, T/C [33] was 101%. The viability, T/C [34] was 92%, the viability, T/C [35] was 102% and the viability, T/C [36] was 116%.
